Results on two compounds are retold here after ChEMBL document CHEMBL4673225, “Highly Selective PTK2 Proteolysis Targeting Chimeras to Probe Focal Adhesion Kinase Scaffolding Functions” (J Med Chem, 2019).

Calls of active or inactive are those of the source. The calls are words filed in the database; no cut-off is given here.

The target in data set [1] is T1, Protein cereblon/Focal adhesion kinase 1 (Homo sapiens, UniProt Q05397+Q96SW2). Kind of data set: Protac activity at CRBN/PTK2 in human Hep3B2.1-7 cells assessed as induction of PTK2 degradation incubated for 18 hrs in presence of Cyclosporine A by protein capillary electrophoresis method relative to control. The data set is classed as cell-based. Particulars: Hep3B.

Data set [2] concerns the target T1, Protein cereblon/Focal adhesion kinase 1. Put plainly: Protac activity at CRBN/PTK2 in human HLF1 cells assessed as induction of PTK2 degradation incubated for 18 hrs by protein capillary electrophoresis method relative to control. The data set is classed as cell-based.
Data set [3] has the same target. Put plainly: Protac activity at CRBN/PTK2 in human SK-HEP1 cells assessed as induction of PTK2 degradation incubated for 18 hrs by protein capillary electrophoresis method relative to control. The data set is classed as cell-based.
The target is the same in data set [4]. Put plainly: Protac activity at CRBN/PTK2 in human A549 cells assessed as induction of PTK2 degradation at 1 to 100000 nM incubated for 18 hrs in presence of NEDD8 inhibitor […] by protein capillary electrophoresis method. The data set is classed as cell-based. Particulars: dose 1-100000 nM.
The target is the same in data set [5]. Put plainly: Protac activity at CRBN/PTK2 in human HuCCT-1 cells assessed as induction of PTK2 degradation incubated for 18 hrs by protein capillary electrophoresis method relative to control. The data set is classed as cell-based.
The nature of data set [6]: Stability in DMSO as solid form. The data set is classed as physicochemical.
The target in data set [7] is T1, Protein cereblon/Focal adhesion kinase 1. Kind of data set: Protac activity at CRBN/PTK2 in human Huh-7 cells assessed as induction of PTK2 degradation incubated for 18 hrs by protein capillary electrophoresis method. The data set is classed as cell-based.
Target sequence in this assay (Q05397 whole entry): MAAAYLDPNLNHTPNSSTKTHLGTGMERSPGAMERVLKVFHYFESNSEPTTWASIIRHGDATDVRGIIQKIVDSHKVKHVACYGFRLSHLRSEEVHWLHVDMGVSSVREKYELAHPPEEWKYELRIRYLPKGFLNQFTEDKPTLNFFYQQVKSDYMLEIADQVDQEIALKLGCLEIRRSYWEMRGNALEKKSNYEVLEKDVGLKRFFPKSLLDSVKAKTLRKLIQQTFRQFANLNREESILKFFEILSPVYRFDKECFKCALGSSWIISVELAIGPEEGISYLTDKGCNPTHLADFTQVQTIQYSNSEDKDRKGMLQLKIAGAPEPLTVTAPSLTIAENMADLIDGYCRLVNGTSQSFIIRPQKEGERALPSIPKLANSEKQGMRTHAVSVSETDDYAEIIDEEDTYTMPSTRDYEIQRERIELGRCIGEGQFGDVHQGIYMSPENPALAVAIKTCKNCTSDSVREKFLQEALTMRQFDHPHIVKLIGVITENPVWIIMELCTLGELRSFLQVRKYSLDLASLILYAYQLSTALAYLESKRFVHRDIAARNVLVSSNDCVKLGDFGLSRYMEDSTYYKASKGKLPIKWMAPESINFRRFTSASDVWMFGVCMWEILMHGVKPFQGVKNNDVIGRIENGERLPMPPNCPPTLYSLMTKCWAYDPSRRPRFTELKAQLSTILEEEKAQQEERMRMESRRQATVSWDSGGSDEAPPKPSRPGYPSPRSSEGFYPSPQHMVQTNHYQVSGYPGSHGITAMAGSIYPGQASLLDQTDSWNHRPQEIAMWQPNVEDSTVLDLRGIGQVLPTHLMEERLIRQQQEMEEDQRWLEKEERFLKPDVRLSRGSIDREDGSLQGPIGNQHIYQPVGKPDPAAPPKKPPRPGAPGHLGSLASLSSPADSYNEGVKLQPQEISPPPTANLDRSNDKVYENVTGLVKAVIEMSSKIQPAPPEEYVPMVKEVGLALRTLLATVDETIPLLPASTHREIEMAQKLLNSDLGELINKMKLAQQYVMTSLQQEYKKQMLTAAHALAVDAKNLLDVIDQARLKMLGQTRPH
Target sequence in this assay (Q96SW2 whole entry): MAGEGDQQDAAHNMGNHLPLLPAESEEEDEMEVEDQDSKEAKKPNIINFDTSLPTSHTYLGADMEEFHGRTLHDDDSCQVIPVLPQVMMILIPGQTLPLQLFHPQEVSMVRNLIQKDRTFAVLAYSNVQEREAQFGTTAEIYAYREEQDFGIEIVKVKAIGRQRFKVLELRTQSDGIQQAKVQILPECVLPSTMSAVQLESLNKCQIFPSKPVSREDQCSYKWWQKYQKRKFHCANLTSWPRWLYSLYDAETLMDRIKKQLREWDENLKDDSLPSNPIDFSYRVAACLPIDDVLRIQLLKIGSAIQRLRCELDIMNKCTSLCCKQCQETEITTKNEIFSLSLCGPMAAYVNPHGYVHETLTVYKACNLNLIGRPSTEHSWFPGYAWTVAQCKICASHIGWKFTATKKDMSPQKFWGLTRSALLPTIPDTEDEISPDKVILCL
For data set [8] the target is unchanged. Kind of data set: Protac activity at CRBN/PTK2 in human SNU-387 cells assessed as induction of PTK2 degradation incubated for 18 hrs by protein capillary electrophoresis method relative to control. The data set is classed as cell-based.
The target is the same in data set [9]. Put plainly: Protac activity at CRBN/PTK2 in human SNU-423 cells assessed as induction of PTK2 degradation incubated for 18 hrs by protein capillary electrophoresis method. The data set is classed as cell-based.
Target sequence in this assay (Q05397 whole entry): as the sequence (Q05397 whole entry) above
Target sequence in this assay (Q96SW2 whole entry): as the sequence (Q96SW2 whole entry) above
Data set [10] has as its target T2, von Hippel-Lindau disease tumor suppressor/Focal adhesion kinase 1 (Homo sapiens, UniProt Q05397+P40337). Kind of data set: Protac activity at VHL/PTK2 in human Hep3B2.1-7 cells assessed as induction of PTK2 degradation incubated for 18 hrs in presence of Cyclosporine by protein capillary electrophoresis method relative to control. The data set is classed as cell-based. Particulars: Hep3B.
Target sequence in this assay (P40337 whole entry partner): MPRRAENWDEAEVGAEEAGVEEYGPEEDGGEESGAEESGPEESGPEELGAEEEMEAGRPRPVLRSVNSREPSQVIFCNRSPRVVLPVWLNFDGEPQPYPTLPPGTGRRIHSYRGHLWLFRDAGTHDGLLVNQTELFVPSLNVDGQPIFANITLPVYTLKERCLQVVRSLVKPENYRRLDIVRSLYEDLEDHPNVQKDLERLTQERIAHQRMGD
Target sequence in this assay (Q05397 2-1052 limits assumed): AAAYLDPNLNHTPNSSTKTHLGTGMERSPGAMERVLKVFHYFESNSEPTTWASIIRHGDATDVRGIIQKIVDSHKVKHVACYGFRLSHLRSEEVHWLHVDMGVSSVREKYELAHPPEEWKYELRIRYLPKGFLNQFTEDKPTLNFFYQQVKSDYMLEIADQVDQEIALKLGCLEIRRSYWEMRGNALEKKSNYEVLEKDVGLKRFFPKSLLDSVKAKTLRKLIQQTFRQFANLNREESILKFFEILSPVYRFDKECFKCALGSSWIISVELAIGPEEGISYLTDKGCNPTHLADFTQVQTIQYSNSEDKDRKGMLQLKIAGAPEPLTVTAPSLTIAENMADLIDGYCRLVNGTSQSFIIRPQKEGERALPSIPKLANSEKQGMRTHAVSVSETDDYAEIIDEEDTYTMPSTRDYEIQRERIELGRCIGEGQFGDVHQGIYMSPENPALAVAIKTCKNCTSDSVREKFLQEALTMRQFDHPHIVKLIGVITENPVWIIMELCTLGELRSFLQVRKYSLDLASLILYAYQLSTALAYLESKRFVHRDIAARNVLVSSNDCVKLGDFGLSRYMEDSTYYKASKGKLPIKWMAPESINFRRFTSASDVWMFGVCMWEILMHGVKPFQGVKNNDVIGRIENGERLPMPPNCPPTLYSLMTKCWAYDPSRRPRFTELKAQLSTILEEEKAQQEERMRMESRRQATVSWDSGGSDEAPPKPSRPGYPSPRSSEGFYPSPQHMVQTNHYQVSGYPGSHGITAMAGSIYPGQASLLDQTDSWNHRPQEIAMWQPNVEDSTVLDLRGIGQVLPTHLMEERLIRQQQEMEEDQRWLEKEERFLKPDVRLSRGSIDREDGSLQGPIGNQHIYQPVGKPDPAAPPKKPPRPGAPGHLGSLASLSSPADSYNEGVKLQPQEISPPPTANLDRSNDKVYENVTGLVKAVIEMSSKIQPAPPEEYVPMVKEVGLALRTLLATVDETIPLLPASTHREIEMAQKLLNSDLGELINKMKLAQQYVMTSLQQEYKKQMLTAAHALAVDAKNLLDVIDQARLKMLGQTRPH

Data set [11] addresses T2, von Hippel-Lindau disease tumor suppressor/Focal adhesion kinase 1. Put plainly: Protac activity at VHL/PTK2 in human SNU-387 cells assessed as induction of PTK2 degradation incubated for 18 hrs by protein capillary electrophoresis method. The data set is classed as cell-based.
Target sequence in this assay (Q05397 whole entry): as the sequence (Q05397 whole entry) above
Target sequence in this assay (P40337 whole entry): as the sequence (P40337 whole entry partner) above
Data set [12] has the same target. Put plainly: Protac activity at VHL/PTK2 in human HuCCT-1 cells assessed as induction of PTK2 degradation incubated for 18 hrs by protein capillary electrophoresis method. The data set is classed as cell-based.
Target sequence in this assay (Q05397 whole entry): as the sequence (Q05397 whole entry) above
Target sequence in this assay (P40337 whole entry): as the sequence (P40337 whole entry partner) above
Data set [13] shares this target. Put plainly: Protac activity at VHL/PTK2 in human Hep3B2.1-7 cells assessed as induction of PTK2 degradation incubated for 18 hrs by protein capillary electrophoresis method relative to control. The data set is classed as cell-based. Particulars: Hep3B.
Target sequence in this assay (P40337 whole entry partner): as above
Target sequence in this assay (Q05397 2-1052 limits assumed): as the sequence (Q05397 2-1052 limits assumed) above
Data set [14] has the same target. Put plainly: Protac activity at VHL/PTK2 in human HLF1 cells assessed as induction of PTK2 degradation incubated for 18 hrs by protein capillary electrophoresis method. The data set is classed as cell-based.
Target sequence in this assay (Q05397 whole entry): as the sequence (Q05397 whole entry) above
Target sequence in this assay (P40337 whole entry): as the sequence (P40337 whole entry partner) above
Data set [15] shares this target. Kind of data set: Protac activity at VHL/PTK2 in human A549 cells assessed as time required for maximal induction of PTK2 degradation at 3 uM by protein capillary electrophoresis method. The data set is classed as cell-based.
Target sequence in this assay (P40337 whole entry partner): as above
Target sequence in this assay (Q05397 2-1052 limits assumed): as the sequence (Q05397 2-1052 limits assumed) above
For data set [16] the target is unchanged. Put plainly: Protac activity at VHL/PTK2 in human Huh-7 cells assessed as induction of PTK2 degradation incubated for 18 hrs by protein capillary electrophoresis method relative to control. The data set is classed as cell-based.
Target sequence in this assay (P40337 whole entry partner): as the sequence (P40337 whole entry partner) above
Target sequence in this assay (Q05397 2-1052 limits assumed): as the sequence (Q05397 2-1052 limits assumed) above
For data set [17] the target is unchanged. Put plainly: Protac activity at VHL/PTK2 in human HuH-1 cells assessed as induction of PTK2 degradation incubated for 18 hrs by protein capillary electrophoresis method. The data set is classed as cell-based.
Target sequence in this assay (Q05397 whole entry): as the sequence (Q05397 whole entry) above
Target sequence in this assay (P40337 whole entry): as the sequence (P40337 whole entry partner) above
The target is the same in data set [18]. Put plainly: Protac activity at VHL/PTK2 in human HLE cells assessed as induction of PTK2 degradation incubated for 18 hrs by protein capillary electrophoresis method. The data set is classed as cell-based.
Target sequence in this assay (Q05397 whole entry): as the sequence (Q05397 whole entry) above
Target sequence in this assay (P40337 whole entry): as the sequence (P40337 whole entry partner) above
The target is the same in data set [19]. Kind of data set: Protac activity at VHL/PTK2 in human HepG2 cells assessed as induction of PTK2 degradation incubated for 18 hrs by protein capillary electrophoresis method relative to control. The data set is classed as cell-based.
Target sequence in this assay (P40337 whole entry partner): as above
Target sequence in this assay (Q05397 2-1052 limits assumed): as the sequence (Q05397 2-1052 limits assumed) above

For `COc1cc(C(=O)NCCOCCOCCOCCC(=O)Nc2cccc3c2C(=O)N(C2CCC(=O)NC2=O)C3=O)ccc1Nc1ncc(C(F)(F)F)c(Oc2cccc3c2C(=O)CC3)n1` (centres undefined), the Emax in data set [1] came to 94%; in [2], 30%; in [3] it was 89%; in data set [5], 90%; in [8], 90%. Moreover, the outcome in data set [4] was inactive. In addition, the Stabilty in data set [6] is over 3 months. The results for the pDC50 in data set [7] and in data set [9] were 7.3 and 7.9, respectively.

On to `COc1cc(C(=O)NCCOCCOCCOCC(=O)N[C@H](C(=O)N2C[C@H](O)C[C@H]2C(=O)NCc2ccc(-c3scnc3C)cc2)C(C)(C)C)ccc1Nc1ncc(C(F)(F)F)c(Oc2cccc3c2C(=O)CC3)n1`, for which the Emax worked out at 88% in data set [10], 59% in data set [13], 79% in data set [16] and 65% in data set [19]. Besides, the pDC50 in data set [11] worked out at 7.5; in [12] it was 6.9; in data set [14] it was 7.4; in [17] it was 7.1; in data set [18] it was 7.6. Moreover, the TIME in data set [15] stood at 72 h.
